This is an account of results in patent US20250098679A1, “HERBICIDAL PYRIDONE DERIVATIVES” (SYNGENTA CROP PROTECTION AG, priority 2021, published 2025).

Common to all, as to assay type: in vivo
Assay [1] has as its system Amaranthus retoflexus (AMARE). Briefly: Post-emergence Test, Amaranthus retoflexus (AMARE). The arrangement: key to percentage damage caused to the plant, AMARE (five-point scale): 5=81-100%, 4=61-80%, 3=41-60%, 2=21-40%, 1=0-20% damage. To be noted: evaluated after 13 days. A digest of the protocol: (§1)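 Sown pots in a glasshouse (24/16 °C day/night, 14 h light, 65% humidity) were sprayed with compound in acetone/water (50:50) with 0.5% Tween 20, at 1000 g/ha unless otherwise stated. Damage was assessed 13 days after spraying and scored 1–5 (5=81-100%, 1=0-20%).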

In the next assay the test system is Setaria faberi (SETFA). Briefly: Post-emergence Test, Setaria faberi (SETFA). The arrangement: key to percentage damage caused to the plant, SETFA (five-point scale): 5=81-100%, 4=61-80%, 3=41-60%, 2=21-40%, 1=0-20% damage. Conditions: 1000 g/ha, evaluated after 13 days. A digest of the protocol:
as §1

The test system of assay [2] is Zea mays (ZEAMX). Briefly: Pre-emergence Test, Zea mays (ZEAMX). Conditions: evaluated after 13 days.
Assay [3] relates to Ipomoea hederacea (IPOHE). Briefly: Post-emergence Test, Ipomoea hederacea (IPOHE). More on the design: key to percentage damage caused to the plant, IPOHE (five-point scale): 5=81-100%, 4=61-80%, 3=41-60%, 2=21-40%, 1=0-20% damage. To be noted: evaluated after 13 days. The method, boiled down: as §1
For assay [4], the system named is Amaranthus palmeri (AMAPA). Briefly: Pre-emergence Test, Amaranthus palmeri (AMAPA). Conditions: evaluated after 13 days.
The subject of assay [5] is Amaranthus retoflexus (AMARE). Briefly: Pre-emergence Test, Amaranthus retoflexus (AMARE). Conditions: evaluated after 13 days.
In assay [6] the test system is Ipomoea hederacea (IPOHE). Briefly: Pre-emergence Test, Ipomoea hederacea (IPOHE). Conditions: evaluated after 13 days.
Assay [7] concerns Echinochloa crus-galli (ECHCG). Briefly: Post-emergence Test, Echinochloa crus-galli (ECHCG). To be noted: evaluated after 13 days. The arrangement: key to percentage damage caused to the plant, ECHCG (five-point scale): 5=81-100%, 4=61-80%, 3=41-60%, 2=21-40%, 1=0-20% damage. The method, boiled down: as §1
Assay [8] relates to Echinochloa crus-galli (ECHCG). Briefly: Pre-emergence Test, Echinochloa crus-galli (ECHCG). Conditions: evaluated after 13 days.
The test system of assay [9] is Amaranthus palmeri (AMAPA). Briefly: Post-emergence Test, Amaranthus palmeri (AMAPA). The arrangement: key: 5=81-100%, 4=61-80%, 3=41-60%, 2=21-40%, 1=0-20% damage. To be noted: evaluated after 13 days. A digest of the protocol:
as §1

The subject of assay [10] is Zea mays (ZEAMX). Briefly: Post-emergence Test, Zea mays (ZEAMX). The arrangement: key to percentage damage caused to the plant, ZEAMX (five-point scale): 5=81-100%, 4=61-80%, 3=41-60%, 2=21-40%, 1=0-20% damage. To be noted: evaluated after 13 days. The method, boiled down:
as §1

Regarding `CCOc1ccn(Cc2cc(=O)c(C(=O)O)c(-c3ccc(Cl)c(Cl)c3)n2CC)n1` [Compound 164, 2-(3,4-dichlorophenyl)-6-[(3-ethoxypyrazol-1-yl)methyl]-1-ethyl-4-oxo-pyridine-3-carboxylic acid], the figures for the “percentage damage caused to the plant, AMARE (five-point scale)” value in assay [1] (250 g/Ha) and in [1] (1000 g/ha) were 1 (1=0-20%) and 3 (3=41-60%), respectively. Moreover, the “percentage damage caused to the plant, SETFA (five-point scale)” value with Setaria faberi (SETFA) is 5 (5=81-100%). In addition, the entries for the “Pre-emergence Test ZEAMX, percentage damage caused to the plant (five-point scale)” value in the assay with Zea mays (ZEAMX) [2] (250 g/Ha (*)) and with Zea mays (ZEAMX) [2] (1000 g/ha) were 1 (1=0-20%) and 0, respectively. For the same compound, the results for the “percentage damage caused to the plant, IPOHE (five-point scale)” value in assay [3] (250 g/Ha) and in assay [3] (1000 g/ha) were 3 (3=41-60%) and 4 (4=61-80%), respectively. The “Pre-emergence Test AMAPA, percentage damage caused to the plant (five-point scale)” value in assay [4] (250 g/Ha (*)) is reported as 0; in assay [4] (1000 g/ha), 1 (1=0-20%). For the same compound, the “Pre-emergence Test AMARE, percentage damage caused to the plant (five-point scale)” value in [5] (250 g/Ha (*)) and in assay [5] (1000 g/ha) was 1 (1=0-20%) throughout. Further, the “Pre-emergence Test IPOHE, percentage damage caused to the plant (five-point scale)” value in [6] (250 g/Ha (*)) and in assay [6] (1000 g/ha) was 4 (4=61-80%) in each case. Besides, the “percentage damage caused to the plant, ECHCG (five-point scale)” value in assay [7] (250 g/Ha) is 4 (4=61-80%). For the same compound, the “Pre-emergence Test ECHCG, percentage damage caused to the plant (five-point scale)” value is 4 (4=61-80%) in [8] (250 g/Ha (*)) and 5 (5=81-100%) in [8] (1000 g/ha). The “percentage damage caused to the plant, AMAPA (five-point scale)” value is listed as 1 (1=0-20%) in [9] (250 g/Ha) and 3 (3=41-60%) in assay [9] (1000 g/ha). The “percentage damage caused to the plant, ZEAMX (five-point scale)” value in the assay on Zea mays (ZEAMX) [10] (250 g/Ha) and in the assay with Zea mays (ZEAMX) [10] (1000 g/ha) was 4 (4=61-80%) each time.
On to `CCn1c(Cn2ccc(-c3cnccn3)n2)cc(=O)c(C(=O)O)c1-c1ccc(Cl)c(Cl)c1` [Compound 203, 2-(3,4-dichlorophenyl)-1-ethyl-4-oxo-6-[(3-pyrazin-2-ylpyrazol-1-yl)methyl]pyridine-3-carboxylic acid], for which the figures for the “Post-emergence Test AMARE, percentage damage caused to the plant (five-point scale)” value in assay [1] (250 g/Ha (*)) and in assay [1] (1000 g/ha) were 1 (1=0-20%) and 0, respectively. Further, the “Post-emergence Test SETFA, percentage damage caused to the plant (five-point scale)” value with Setaria faberi (SETFA) was 1 (1=0-20%). In the assay with Zea mays (ZEAMX) [2] (1000 g/ha), the “Pre-emergence Test ZEAMX, percentage damage caused to the plant (five-point scale)” value is 1 (1=0-20%). Further, the “Post-emergence Test IPOHE, percentage damage caused to the plant (five-point scale)” value in assay [3] (250 g/Ha (*)) is 2 (2=21-40%); in assay [3] (1000 g/ha), 1 (1=0-20%). In addition, in assay [4] (1000 g/ha), the “Pre-emergence Test AMAPA, percentage damage caused to the plant (five-point scale)” value is listed as 1 (1=0-20%). Further, in [5] (1000 g/ha), the “Pre-emergence Test AMARE, percentage damage caused to the plant (five-point scale)” value is listed as 1 (1=0-20%). Further, the “Pre-emergence Test IPOHE, percentage damage caused to the plant (five-point scale)” value in assay [6] (1000 g/ha) was determined as 0. In assay [7] (250 g/Ha (*)), the “Post-emergence Test ECHCG, percentage damage caused to the plant (five-point scale)” value was 1 (1=0-20%). In addition, the “Pre-emergence Test ECHCG, percentage damage caused to the plant (five-point scale)” value in [8] (1000 g/ha) is on record as 2 (2=21-40%). In addition, the “Post-emergence Test AMAPA, percentage damage caused to the plant (five-point scale)” value in assay [9] (250 g/Ha (*)) is 1 (1=0-20%); in assay [9] (1000 g/ha), 0. Also, the “Post-emergence Test ZEAMX, percentage damage caused to the plant (five-point scale)” value in the assay on Zea mays (ZEAMX) [10] (250 g/Ha (*)) and with Zea mays (ZEAMX) [10] (1000 g/ha) was 1 (1=0-20%) each time.
